According to patent publication US10544075B2 (OREGON HEALTH & SCIENCE UNIVERSITY, priority 2016, dated 2020):

Columns and labels:
[1] = rat heart rate elevation and anti-goiter assays; cited from earlier work
[2] = tested on: Hairless (Hr) mRNA; test: Induction of Hairless (Hr) mRNA expression in the brain by qPCR after ip administration; format: in vivo, C57BL/6J mice; conditions: for induction of Hr expression: 9.14 μmol/kg ip; for induction of Hr expression / EC50 of Hr mRNA induction in the brain / Hr induction compared to GC-1: 2 hr; for induction of Hr expression / Hr induction compared to GC-1 / potency greater than GC-1 (Hr induction, single dose): brain; for induction of Hr expression / EC50 of Hr mRNA induction in the brain: normalized to GAPDH mRNA; for EC50 of Hr mRNA induction in the brain: ip, ±SEM; for Hr induction compared to GC-1: analogs at 0.914 μmol/kg ip; for potency greater than GC-1 (Hr induction, single dose): from single dose comparison
Description: Euthanasia was performed on three mice per dose at 2 hr and the tissues were harvested. The brain tissues collected for qPCR analysis were processed according to a protocol for RNA extraction using Trizol reagent and the PureLink RNA mini kit, using Qiagen RNase-free DNase kit during the optional DNase treatment step. 1 μg of extracted RNA was used to synthesize cDNA via a reverse transcription (RT) reaction using the Qiagen QuantiTect Reverse Transcription kit. DNA contamination was controlled for by duplicating one sample without the addition of RT enzyme. Expression of the Hairless (Hr) gene was measured by QPCR using the QuantiTect SYBR green PCR kit from Qiagen. The primer sequences for hairless ([…]; Rev: [NT] were previously described by Barca-Mayo19. The template cDNA was diluted 2-fold to minimize the interference of RT reagents in the qPCR reaction. Glyceraldehyde-3-Phosphate Dehydrogenase (GAPDH) was the housekeeping gene used for normalizing between samples. Data analysis for single dose experiment was done using the comparative CT method to look at the relative differences in Hr gene expression.

[3] = biological target: hTRα1 (Homo sapiens (Human), UniProt P10827); test: TRE-driven dual luciferase transactivation assay, TRα; format: cell-based; conditions: transiently transfected HEK293 cells; ±SEM
hTRα1, sequence (P10827 other isoform, or with tags, fused parts or gaps): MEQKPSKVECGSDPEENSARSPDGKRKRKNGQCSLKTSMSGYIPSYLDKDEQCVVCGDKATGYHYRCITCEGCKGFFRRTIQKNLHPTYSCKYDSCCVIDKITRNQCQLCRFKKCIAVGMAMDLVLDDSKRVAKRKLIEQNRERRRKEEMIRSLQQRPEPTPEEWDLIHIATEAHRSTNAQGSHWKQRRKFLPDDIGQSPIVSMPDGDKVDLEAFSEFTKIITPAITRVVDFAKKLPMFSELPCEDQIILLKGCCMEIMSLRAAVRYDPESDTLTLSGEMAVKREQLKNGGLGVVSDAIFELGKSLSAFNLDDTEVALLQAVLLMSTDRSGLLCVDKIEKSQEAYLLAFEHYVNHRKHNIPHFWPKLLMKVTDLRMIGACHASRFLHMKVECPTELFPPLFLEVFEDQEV
Description: The cells were trypsinized with 0.25% trypsin, then diluted to 5×10^5 cells/mL with high glucose DMEM. […] 1.5 μg of TR expression vector (full length TRα-CMV or TRβ-CMV), 1.5 μg of a reporter plasmid containing a DR4 thyroid hormone response element (TRE) direct repeat spaced by four nucleotides (AGGTCAcaggAGGTCA) cloned upstream of a minimal thymidine kinase promoter linked to a firefly luciferase coding sequence, and 0.75 μg of a pRL-SV40 constitutive Renilla luciferase reporter plasmid were diluted into 540 μl of OptiMEM. 27 μL of lipofectamine reagent was diluted into 540 μL of OptiMEM. The plasmid and lipofectamine dilutions were combined then incubated at RT for 10 min. The mixture was then diluted into 4.29 mL of OptiMEM. Plates were washed with 100 μL of phosphate buffered saline (PBS) at pH 7.2 without magnesium or calcium chloride per well. Transfection mixtures were added at 50 μL per well, then incubated at 37° C. for 4 hours. […]
(§1) Cells were assayed for luciferase activity using the Promega DualGlo kit. […] A 50 μl volume of Stop & Glo Reagent was added per well, then the plate was read for Renilla luciferase activity. Data normalized to Renilla internal control were analyzed with GraphPad Prism v.4a using the sigmoid dose response model to generate EC50 values±SEM.

[4] = Distribution study in brain and serum after systemic (ip) administration, LC-MS/MS; format: in vivo, C57BL/6J mice; conditions: 9.14 μmol/kg ip, 1 hr post-injection
Description: Euthanasia was performed on three mice per dose at 1 hr and the tissues and blood were harvested. Tissues were immediately frozen and blood was kept on ice for a minimum of 30 minutes and then spun down at 7,500×G for 15 minutes. Serum (100 uL) was collected and was stored with tissues at −80° C. until samples were processed.
The serum samples were warmed to RT and 10 uL of 2.99 μM internal standard (D6-GC-1) was added to them. Acetonitrile (500 uL) was added and the sample was vortexed for 20 seconds. The sample was then centrifuged at 10,000×G for 15 minutes at 4° C. Next, 90% of the upper supernatant was transferred to a glass test tube and concentrated using a speedvac for 1.5 hr at 45° C. The dried sample was then dissolved in 400 μL of 50:50 ACN:H2O and vortexed for 20 seconds. The resulting mixture was transferred to an Eppendorf tube and centrifuged at 10,000×G for 15 minutes. The supernatant was filtered with […] centrifugal filters and submitted for LCMS/MS analysis. […] The processing was performed exactly the same except after filtering the sample was split among 6 vials.
The brain samples were warmed to RT and transferred to a homogenizer tube with 5 GoldSpec ⅛ chrome steel balls (Applied Industrial Technologies). The resulting tube was weighed and then 1 mL of H2O was added, followed by 10 μL of 2.99 μM internal standard (D6-Sobetirome). The tube was homogenized with a Bead Bug for 30 seconds and then transferred to a Falcon® tube containing 3 mL of ACN. A 1 ml volume of ACN was used to wash the homogenizer tube. Then the solution was transferred back to the Falcon® tube. The sample was then processed using the same method for the serum processing described above except the sample was concentrated in a glass tube using a speed vac for 4 hr at 45° C.
A distribution study was carried out in C57BL/6J mice to determine the concentrations in brain and serum after systemic (ip) administration. […] Tissue and blood were collected 1 hr post-injection and the concentration of the drugs was determined by LC-MS/MS analysis (FIG. 2).

[5] = biological target: hTRβ1 (Homo sapiens (Human), UniProt P10828); test: TRE-driven dual luciferase transactivation assay, TRβ; format: cell-based; conditions: transiently transfected HEK293 cells; ±SEM
hTRβ1 (Homo sapiens (Human), UniProt P10828), sequence (P10828 whole entry, looked up): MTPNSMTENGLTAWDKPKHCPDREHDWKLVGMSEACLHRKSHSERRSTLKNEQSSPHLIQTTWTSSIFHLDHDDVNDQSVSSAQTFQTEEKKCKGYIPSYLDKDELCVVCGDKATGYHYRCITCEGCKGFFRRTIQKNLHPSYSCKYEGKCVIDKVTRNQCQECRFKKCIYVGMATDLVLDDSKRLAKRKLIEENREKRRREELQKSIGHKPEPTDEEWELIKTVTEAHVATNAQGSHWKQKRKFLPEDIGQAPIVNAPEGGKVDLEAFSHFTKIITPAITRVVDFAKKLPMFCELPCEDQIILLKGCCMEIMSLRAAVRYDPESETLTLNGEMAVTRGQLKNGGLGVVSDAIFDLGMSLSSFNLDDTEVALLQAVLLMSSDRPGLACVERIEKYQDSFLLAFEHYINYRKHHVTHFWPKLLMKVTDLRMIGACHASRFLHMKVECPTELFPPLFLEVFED
Description: (§2) The cells were trypsinized with 0.25% trypsin, then diluted to 5×10^5 cells/mL with high glucose DMEM. […] 1.5 μg of TR expression vector (full length TRα-CMV or TRβ-CMV), 1.5 μg of a reporter plasmid containing a DR4 thyroid hormone response element (TRE) direct repeat spaced by four nucleotides (AGGTCAcaggAGGTCA) cloned upstream of a minimal thymidine kinase promoter linked to a firefly luciferase coding sequence, and 0.75 μg of a pRL-SV40 constitutive Renilla luciferase reporter plasmid were diluted into 540 μl of OptiMEM. 27 μL of lipofectamine reagent was diluted into 540 μL of OptiMEM. The plasmid and lipofectamine dilutions were combined then incubated at RT for 10 min. The mixture was then diluted into 4.29 mL of OptiMEM. Plates were washed with 100 μL of phosphate buffered saline (PBS) at pH 7.2 without magnesium or calcium chloride per well. Transfection mixtures were added at 50 μL per well, then incubated at 37° C. for 4 hours. Modified DME/F-12 Ham's medium without phenol red containing 15 mM HEPES and bicarbonate, 5 mM L-glutamine, charcoal-stripped FBS, 50 units/mL penicillin and 50 μg/mL streptomycin was added at 50 μL per well, then the plates were incubated at 37° C. for 20 hours. Drug stocks were made at 10 mM in DMSO, then serially diluted to 1× concentrations in DME/F-12 Ham's. Plates were washed with 100 μL of PBS (pH 7.2) per well. 100 μL of each drug stock was added to the wells in triplicate, and then the plates were incubated at 37° C. for 24 hours.
as §1

[6] = tested on: hTRβ1; test: as above; format: cell-based, human; conditions: transactivation assays in HEK293 cells
Description: as §2, §1

[7] = Single time-point drug distribution of parent drugs from amides in brain and serum; format: in vivo, C57Bl/6 mice; conditions: equimolar systemic dose of 3.05 μmol/kg, 1 hour, brain
Description: Wild type male C57Bl/6 mice, aged 8-10 weeks, were housed in a climate-controlled room with a 12 hour light-dark cycle with ad libitum access to food and water. To compare the single time-point drug distribution of JD-20 with JD-20 generated from the amide MA-JD20, and JD-21 with JD-21 generated from the amide MA-JD-21, the concentrations of the parent drugs were analyzed in brain and serum of mice by administering a dose of 3.05 μmol/kg (three mice per dose) with JD-20, JD-21, MA-JD20 and MA-JD21 both intraperitoneally and orally. The compounds were dissolved in a mixture of 50:50 DMSO and 0.9% sodium chloride bacteriostatic solution. Oral gavage was performed with the use of plastic feeding tubes (20 ga×38 mm, Instech Laboratories Inc., PA, USA) connected to […] insulin syringes (Covidien LLC MA, USA). In both experiments, the mice were euthanized after 1 hour following drug administration.
The tissues were processed as follows: The brains were collected in previously weighed homogenizer tubes with 3 Gold Spec ⅛ chrome steel balls (Applied Industrial Technologies) and immediately frozen at −80° C. The blood samples were kept on ice for 30 mins and then spun down at 5400×G at 4° C. for 15 min. […]
The serum samples were warmed to room temperature. […] The serum samples thus prepared were submitted for LC-MS/MS analysis to quantify the amount of free JD-20 or JD-21. […]

[8] = biological target: Human FAAH (Homo sapiens (Human), UniProt O00519); test: FAAH activity in cell homogenate; format: biochemical
Human FAAH, sequence (O00519 whole entry): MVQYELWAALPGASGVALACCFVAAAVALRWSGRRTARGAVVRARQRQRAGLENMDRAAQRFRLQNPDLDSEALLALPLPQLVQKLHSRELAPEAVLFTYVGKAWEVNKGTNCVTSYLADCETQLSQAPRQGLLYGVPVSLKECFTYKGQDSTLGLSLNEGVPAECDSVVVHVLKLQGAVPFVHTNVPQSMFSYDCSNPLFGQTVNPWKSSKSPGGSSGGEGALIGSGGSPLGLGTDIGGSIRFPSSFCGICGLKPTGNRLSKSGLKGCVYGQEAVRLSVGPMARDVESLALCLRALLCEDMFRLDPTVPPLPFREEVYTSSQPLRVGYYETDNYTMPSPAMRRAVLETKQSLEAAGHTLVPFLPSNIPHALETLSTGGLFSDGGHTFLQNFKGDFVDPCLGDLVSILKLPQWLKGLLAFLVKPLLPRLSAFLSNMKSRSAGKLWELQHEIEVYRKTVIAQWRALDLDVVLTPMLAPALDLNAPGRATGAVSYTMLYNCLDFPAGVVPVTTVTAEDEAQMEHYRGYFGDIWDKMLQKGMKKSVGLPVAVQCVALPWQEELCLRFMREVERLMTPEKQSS
Description: COS-7 cells (ATCC CRL-1651) were cultured in Dulbecco's Modified Eagle's Medium supplemented with 10% FBS, penicillin ([…]), and streptomycin ([…]). Cells (800,000/well) were seeded into 6-well plates (Falcon 353046) and left to adhere overnight. Cells were transfected with pcDNA4-FAAH-FLAG with Lipofectamine 2000 (Invitrogen) according to the manufacturer's protocol. Mock transfection controls were done with transfection reagent and no DNA. Cells were washed 4-days post transfection with cold PBS and scraped into TE buffer (125 mM Tris, 1 mM EDTA, pH 9) and sonicated (10 sec, 60 Sonic Dismembrator, Fisher). Cell homogenates were stored at −80° C. and protein concentrations were determined by BCA (Pierce). Cell homogenates were diluted into TE buffer containing 0.1% fatty-acid free BSA (Alfa Aesar). Substrates were added as 50× stocks in DMSO into 50 μL aliquots of homogenate to a final concentration of 100 μM. Reactions were performed with homogenate protein at 31.25 μg/mL for 15 min at 37° C. Reactions were quenched with 100 μL acetonitrile and vortexed for 20 s. Samples were clarified by centrifuge (10,000 rpm, 15 min, 4° C.). The supernatant is diluted 50-fold into 2:1 MeCN:H2O containing 300 nM d11-arachindonic acid and 30 nM d6-sobetirome. Samples were centrifuged again (13,200 rpm, 15 min, 4° C.). Products were quantified by LC/MS-MS with standard curves generated from mock samples. Observed rates are expressed as nmol product per mg protein homogenate per min.
FAAH was overexpressed in COS-7 cells as described above and cell homogenate was used to measure observed rates of substrate cleavage compared with the classic endogenous FAAH substrate anandamide (AEA). Substrate were all tested at 100 μM. Compared to AEA, the thyromimetic amides MA-GC 1 (9-fold), MA-JD20 (31-fold), and MA-JD21 (20-fold) show decreased rates. […] Observed rates are expressed as nmol product per mg homogenate protein per min.

SMILES	induction of Hr expression [2]	EC50 of Hr mRNA induction in the brain [2]	Hr induction compared to GC-1 [2]	potency greater than GC-1 (Hr induction, single dose) [2]	EC50 [3]	brain:serum ratio compared to GC-1 [4]	brain uptake compared to GC-1 [4]	serum levels compared to GC-1 [4]	EC50 [5]	TRβ/TRα subtype selectivity from EC50 values [6]	other results
Cc1cc(CC(N)C(=O)O)cc(C)c1Oc1ccc(O)c(C(C)C)c1 (racemic) [DIMIT, 3′-isopropyl-3,5-dimethyl-DL-thyronine]											activity [1]: little measurable activity
CC(C)c1cc(Oc2c(Br)cc(C[C@H](N)C(=O)O)cc2Br)ccc1O [DIBIT, 3′-isopropyl-3,5-dibromo-L-thyronine]											potency relative to L-T4 [1]: 2-7 fold
Cc1cc(OCC(=O)O)cc(C)c1Cc1ccc(O)c(C(C)C)c1 [GC-1, sobetirome, reference compound]	1.6 fold	8.20 ± 12.65 µmol/kg									
CC(C)c1cc(Cc2c(Br)cc(OCC(=O)O)cc2Br)ccc1O [JD-20, 2-(3,5-dibromo-4-((3-isopropyl-4-hydroxyphenyl)methyl)-phenoxy)acetic acid]		1.49 ± 1.08 µmol/kg	comparable Hr induction to GC-1	roughly 10 fold	7.96 ± 6.95 nM	comparable to GC-1	somewhat lower	significantly lower than GC-1	0.88 ± 1.12 nM	9.04	
CC(C)c1cc(Cc2c(Cl)cc(OCC(=O)O)cc2Cl)ccc1O [JD-21, 2-(3,5-dichloro-4-((3-isopropyl-4-hydroxyphenyl)methyl)-phenoxy)acetic acid]	2.4 fold	1.21 ± 1.75 µmol/kg	comparable Hr induction to GC-1	roughly 10 fold	7.82 ± 3.61 nM	higher brain:serum ratio than GC-1	roughly comparable brain uptake compared to GC-1	significantly lower than GC-1	1.24 ± 1.3 nM	6.31	
CNC(=O)COc1cc(Cl)c(Cc2ccc(O)c(C(C)C)c2)c(Cl)c1 [MA-JD21, 2-(3,5-dichloro-4-(4-hydroxy-3-isopropylbenzl)phenoxy)-N-methylacetamide]											parent drug delivered to the CNS compared to unmodified JD-20 or JD-21 [7]: delivers more of the parent drugs to the CNS; FAAH substrate ([8]; 100 μM, COS-7 cell homogenate): substrates for fatty-acid amide hydrolase (FAAH); decreased observed rate of substrate cleavage compared to AEA ([8]; substrate 100 μM, FAAH overexpressed in COS-7 cell homogenate): 20 fold
